Laboratory results taken from PMC3280214, “Structure Based Discovery of Small Molecules to Regulate the Activity of Human Insulin Degrading Enzyme” (PLoS ONE, 2012).

Target: T1, mutant IDE (Gln363Ala) (Homo sapiens, UniProt P14735, Q363A)
T1 construct: made in house; host or cells: E. coli (BL21 inferred, as for the wild type)
T1 sequence (P14735 1-1019 Q363A): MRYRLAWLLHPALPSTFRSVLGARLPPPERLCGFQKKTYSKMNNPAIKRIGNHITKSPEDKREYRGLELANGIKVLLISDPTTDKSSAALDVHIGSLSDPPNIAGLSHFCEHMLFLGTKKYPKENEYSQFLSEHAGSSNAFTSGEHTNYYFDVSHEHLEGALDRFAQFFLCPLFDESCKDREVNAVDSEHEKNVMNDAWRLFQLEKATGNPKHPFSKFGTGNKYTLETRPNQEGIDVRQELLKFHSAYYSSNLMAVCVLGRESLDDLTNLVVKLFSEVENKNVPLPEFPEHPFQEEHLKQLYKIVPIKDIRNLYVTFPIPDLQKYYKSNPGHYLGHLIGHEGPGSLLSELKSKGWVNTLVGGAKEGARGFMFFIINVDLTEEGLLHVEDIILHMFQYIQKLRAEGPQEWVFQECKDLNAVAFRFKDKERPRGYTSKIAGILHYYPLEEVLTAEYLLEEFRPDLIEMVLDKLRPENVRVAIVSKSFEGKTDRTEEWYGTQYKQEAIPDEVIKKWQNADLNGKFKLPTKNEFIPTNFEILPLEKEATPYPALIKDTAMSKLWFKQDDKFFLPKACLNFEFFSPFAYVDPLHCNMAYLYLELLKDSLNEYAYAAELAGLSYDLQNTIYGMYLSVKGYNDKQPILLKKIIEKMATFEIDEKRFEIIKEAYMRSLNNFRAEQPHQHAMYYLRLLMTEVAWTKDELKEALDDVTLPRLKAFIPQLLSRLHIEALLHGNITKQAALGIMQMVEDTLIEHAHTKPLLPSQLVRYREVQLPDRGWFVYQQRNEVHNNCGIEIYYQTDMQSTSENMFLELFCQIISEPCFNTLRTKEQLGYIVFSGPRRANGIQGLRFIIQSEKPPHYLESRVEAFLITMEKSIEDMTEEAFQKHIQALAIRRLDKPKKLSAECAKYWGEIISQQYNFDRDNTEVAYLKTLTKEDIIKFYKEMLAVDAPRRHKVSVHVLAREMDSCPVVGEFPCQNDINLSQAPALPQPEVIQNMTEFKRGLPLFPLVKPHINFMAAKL
Assay: FITC-insulin-mAb degradation by mutant IDE (Gln363Ala)
Assay type: biochemical
Conditions: Gln363Ala vs wild type IDE; 20 µM D10
Source text: Since D10 has been found as the strongest activator of IDE towards the proteolysis of insulin, we analyzed the binding site of the compound D10 for the further analysis. According to the computational results, D10 binds to Gln363 at the IDE exosite and His332 (Fig. 1D). We carried out site-directed mutagenesis by replacing these amino acids into Ala in order to verify that D10 indeed binds to this region via these amino acids. We first mutated Gln363 to Ala and then expressed and purified mutant protein through nickel resin. The effect of D10 on the proteolytic activity of mutant IDE (Gln363Ala) was measured towards FITC-insulin-mAb degradation. […] The activation was about 49-fold in the presence of D10 with wild type IDE (Fig. 2B). Although mutant IDE activity was less responsive to D10 compound compared to wild type IDE, it appeared as if D10 were interacting with IDE through […] and could enhance the activity of mutant IDE. […]
The utility of these novel compounds were tested on degradation of insulin by IDE. […] The proteolysis of insulin by IDE was monitored by measuring the changes in fluorescence, where the reaction was carried out with 100 nM of FITC- insulin-mAb and IDE (80 ng) in 100 µl KH2PO4 buffer at a pH of 7.3. […] The increase in fluorescence was monitored by using Fluoroskan Ascent FL microplate reader (Thermo).

With `Cc1nn(-c2ccccc2)c2nc(-c3cccc([N+](=O)[O-])c3)n3c4ccccc4nc3c2c1=O` [Compound D10] the “reduction of compound-enhanced activation with mutant IDE” value was 10 fold.
